Read-outs that look alike come from different tables or passages of the source.
Tests used:
Pseudomonas putida S12 = settings: LB (+glucose) liquid medium, 30° C.
Procedure: (§1) A growth inhibition test in aerobic culture was performed to examine the influence of phenol on Corynebacterium glutamicum, Escherichia coli, and Pseudomonas putida. Pseudomonas putida S12, which was used for the test, is reported to be a solvent-resistant strain. In the report, disclosed is an unparalleled technology using the strain as a host in phenol production.
(§2) Pseudomonas putida F1 and S12 were applied to LB agar medium (1% polypeptone, 0.5% yeast extract, 0.5% NaCl and 1.5% agar) and were left stand in the dark at 30° C. for 15 hours.
(§3) An inoculation loop of each of the Pseudomonas putida F1 and S12 grown on a plate as above was inoculated into a test tube containing 10 mL of LB (+glucose) liquid medium (1% polypeptone, 0.5% yeast extract, 0.5% NaCl and 0.4% glucose), and aerobic culture was performed with shaking at 30° C. for 13 hours.
(§4) The Pseudomonas putida F1 and S12 grown in the above conditions were each inoculated into 100 mL of LB (+glucose) liquid medium in such a way that the initial bacterial cell concentration would be OD610=0.05, phenol was added at the same time in such a way that the final concentration would be 0, 0.10, or 0.20 […], and aerobic culture was performed with shaking at 30° C.
(§5) The growth of bacterial cells was determined by absorbance measurement at OD610.

Pseudomonas putida F1 = settings: LB (+glucose) liquid medium, 30° C.
Procedure: as §1, §2, §3, §4, §5

Escherichia coli JM109 = settings: LB liquid medium, 37° C.
Procedure: as §1
Escherichia coli JM109 was applied to LB agar medium (1% polypeptone, 0.5% yeast extract, 0.5% NaCl and 1.5% agar) and was left stand in the dark at 37° C. for 15 hours.
An inoculation loop of the Escherichia coli JM109 grown on a plate as above was inoculated into a test tube containing 10 mL of LB liquid medium (1% polypeptone, 0.5% yeast extract, and 0.5% NaCl), and aerobic culture was performed with shaking at 37° C. for 13 hours.
(§6) The Escherichia coli JM109 grown in the above conditions was inoculated into 100 mL of LB liquid medium in such a way that the initial bacterial cell concentration would be OD610=0.05, phenol was added at the same time in such a way that the final concentration would be 0, 0.16, or 0.20 mM, and aerobic culture was performed with shaking at 37° C. The growth of bacterial cells was determined by absorbance measurement at OD610.
as §5

[1] = tested on: Corynebacterium glutamicum R; settings: A liquid medium, 33° C.
Procedure: as §1
Corynebacterium glutamicum R was applied to A agar medium (2 g of (NH2)2CO3 7 g of (NH4)2SO4, 0.5 g of KH2PO4, 0.5 g of K2HPO4, 0.5 g of MgSO4.7H2O, 1 mL of 0.06% (w/v) Fe2SO4.7H2O+0.042% (w/v) MnSO4.2H2O, 1 mL of 0.02% (w/v) biotin solution, 2 mL of 0.01% (w/v) thiamin solution, 2 g of yeast extract, 7 g of vitamin assay casamino acid, 40 g of glucose, and 15 g of agar were suspended in 1 L of distilled water) and was left stand in the dark at 33° C. for 15 hours.
An inoculation loop of the Corynebacterium glutamicum R grown on a plate as above was inoculated into a test tube containing 10 mL of A liquid medium (2 g of (NH2)2CO3 7 g of (NH4)2SO4, 0.5 g of KH2PO4, 0.5 g of K2HPO4, 0.5 g of MgSO4.7H2O, 1 mL of 0.06% (w/v) Fe2SO4.7H2O+0.042% (w/v) MnSO4.2H2O, 1 mL of 0.02% (w/v) biotin solution, 2 mL of 0.01% (w/v) thiamin solution, 2 g of yeast extract, 7 g of vitamin assay casamino acid, and 40 g of glucose were suspended in 1 L of distilled water) and was aerobically cultured with shaking at 33° C. for 13 hours.
as §6, with “Corynebacterium glutamicum R” for “Escherichia coli JM109”, “A” for “LB”, “0.16, 0.2, 0.24,” for “0.16,”, “0.32” for “0.20”, “33°” for “37°”
as §5

For Oc1ccccc1 [phenol], the “influence of phenol on aerobic proliferation (OD610)” value (“influence of phenol” for short) (Pseudomonas putida S12; 0.10% phenol) was “significantly affected”, the “influence of phenol” value (Pseudomonas putida S12; 0.20% phenol) was “completely inhibited” and the “influence of phenol” value (Pseudomonas putida F1; 0.10% phenol) was “significantly affected”. The “influence of phenol” value (Pseudomonas putida F1; 0.20% phenol) was “completely inhibited”, the “influence of phenol” value (Escherichia coli JM109; 0.16% phenol) was “significantly affected” and the “influence of phenol” value (Escherichia coli JM109; 0.20% phenol) was “completely inhibited”. For the same compound, the “influence of phenol” value ([1]; 0.16% phenol) was “hardly affected”, the “influence of phenol” value ([1]; 0.20% phenol) was “favorable growth” and the “influence of phenol” value ([1]; 0.24% phenol) was “able to proliferate”.

— patent publication US9090900B2, “Coryneform bacterium transformant and process for producing phenol using the same” (priority 2010, dated 2015)
